# Experimental data as given in ChEMBL document CHEMBL5108067, “Discovery of Potent OTUB1/USP8 Dual Inhibitors Targeting Proteostasis in Non-Small-Cell Lung Cancer” (J Med Chem, 2022).
# Key:
# [1] = molecular target: T1, Ubiquitin thioesterase OTUB1 (Homo sapiens, UniProt Q96FW1); assay: Inhibition of N-terminal His-6 tagged OTUB1 (40 to 271 residues) (unknown origin) expressed in Escherichia coli BL21 (DE3) cells at 10 nM using Ub-Rho measured after 0.5 to 3 hrs by fluorescence based Plate reader method relative to control; settings: time 0.5-3 hrs, values are per cent of control
# [2] = molecular target: T1, Ubiquitin thioesterase OTUB1; assay: Inhibition of N-terminal His-6 tagged OTUB1 (40 to 271 residues) (unknown origin) expressed in Escherichia coli BL21 (DE3) cells at 100 nM using Ub-Rho measured after 0.5 to 3 hrs by fluorescence based Plate reader method relative to control; settings: time 0.5-3 hrs, values are per cent of control
# [3] = molecular target: T2, Ubiquitin carboxyl-terminal hydrolase 8 (Homo sapiens) (UniProt P40818); assay: Inhibition of N-terminal His-6 tagged USP8 (734 to 1110 residues) (unknown origin) expressed in Escherichia coli BL21 (DE3) cells at 10 nM measured after 3 hrs by fluorescence based Plate reader method relative to control; settings: values are per cent of control
# T2 sequence (whole entry): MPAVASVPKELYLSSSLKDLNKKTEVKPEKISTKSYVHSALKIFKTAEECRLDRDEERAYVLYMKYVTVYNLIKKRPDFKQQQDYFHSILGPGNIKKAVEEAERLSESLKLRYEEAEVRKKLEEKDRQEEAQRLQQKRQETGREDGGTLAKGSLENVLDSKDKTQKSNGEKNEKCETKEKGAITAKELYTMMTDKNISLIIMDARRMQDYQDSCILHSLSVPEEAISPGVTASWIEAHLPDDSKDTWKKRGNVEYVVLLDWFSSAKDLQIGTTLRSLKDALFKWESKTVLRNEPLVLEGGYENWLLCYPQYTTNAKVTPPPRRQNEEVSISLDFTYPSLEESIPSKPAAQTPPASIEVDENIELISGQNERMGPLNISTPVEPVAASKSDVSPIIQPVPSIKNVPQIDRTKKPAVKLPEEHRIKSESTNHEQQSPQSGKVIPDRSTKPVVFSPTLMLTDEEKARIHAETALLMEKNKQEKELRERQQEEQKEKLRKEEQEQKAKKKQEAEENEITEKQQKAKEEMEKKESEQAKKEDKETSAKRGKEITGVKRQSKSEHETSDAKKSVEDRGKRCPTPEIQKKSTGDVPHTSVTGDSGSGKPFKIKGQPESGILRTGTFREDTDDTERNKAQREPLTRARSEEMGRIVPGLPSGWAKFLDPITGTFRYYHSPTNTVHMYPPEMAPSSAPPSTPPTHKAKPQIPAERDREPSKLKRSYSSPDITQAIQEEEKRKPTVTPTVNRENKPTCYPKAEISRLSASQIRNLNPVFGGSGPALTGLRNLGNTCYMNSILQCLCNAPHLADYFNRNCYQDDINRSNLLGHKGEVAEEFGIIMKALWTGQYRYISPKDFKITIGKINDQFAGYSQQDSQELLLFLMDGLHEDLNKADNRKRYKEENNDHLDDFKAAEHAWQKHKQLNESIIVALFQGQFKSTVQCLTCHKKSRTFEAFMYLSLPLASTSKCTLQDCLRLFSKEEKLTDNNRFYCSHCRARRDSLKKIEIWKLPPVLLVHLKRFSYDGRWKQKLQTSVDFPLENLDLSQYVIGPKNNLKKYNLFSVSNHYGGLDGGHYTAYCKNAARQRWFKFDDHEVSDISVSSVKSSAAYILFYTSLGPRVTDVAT
# [4] = molecular target: T2, Ubiquitin carboxyl-terminal hydrolase 8 (Homo sapiens); assay: Inhibition of N-terminal His-6 tagged USP8 (734 to 1110 residues) (unknown origin) expressed in Escherichia coli BL21 (DE3) cells at 100 nM measured after 3 hrs by fluorescence based Plate reader method relative to control; settings: values are per cent of control
# T1 sequence (Q96FW1 whole entry, the tested form may be a part): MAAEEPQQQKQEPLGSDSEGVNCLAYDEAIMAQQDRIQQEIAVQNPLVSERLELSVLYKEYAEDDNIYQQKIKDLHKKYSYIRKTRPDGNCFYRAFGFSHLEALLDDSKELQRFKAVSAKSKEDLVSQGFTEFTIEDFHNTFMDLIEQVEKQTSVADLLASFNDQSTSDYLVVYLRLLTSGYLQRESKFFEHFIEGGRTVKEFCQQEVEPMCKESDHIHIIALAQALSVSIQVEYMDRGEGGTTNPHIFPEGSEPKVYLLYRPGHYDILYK
residual activity [1],residual activity [2],residual activity [3],residual activity [4],SMILES
55.5%,27.3%,37.1%,19.2%,O=C1c2ccccc2C(=O)c2oc(-c3ccccc3F)nc21
60.4%,34.7%,66.3%,49.3%,O=C1c2ccccc2C(=O)c2oc(-c3cccc(Cl)c3)nc21
66.4%,48.4%,63.6%,38.1%,Cc1ccccc1-c1nc2c(o1)C(=O)c1ccccc1C2=O
74.4%,40.7%,49%,24%,COc1cc(Cl)cc(-c2nc3c(o2)C(=O)c2ccccc2C3=O)c1
52.9%,22.4%,42.6%,25.5%,COc1cccc(-c2nc3c(o2)C(=O)c2ccccc2C3=O)c1F
70.2%,40.4%,53.6%,30%,COc1cc(-c2nc3c(o2)C(=O)c2ccccc2C3=O)ccc1Cl
61.3%,34.2%,55.9%,22.5%,O=C1c2ccccc2C(=O)c2oc(-c3ccc(Cl)cc3)nc21
56.2%,24%,39.1%,37.4%,O=C1c2ccccc2C(=O)c2oc(-c3c(F)cccc3F)nc21
44.5%,19.4%,34.7%,19.3%,O=C1c2ccccc2C(=O)c2oc(-c3ccc(F)cc3F)nc21
47.6%,23.5%,28.5%,37.4%,O=C1c2ccccc2C(=O)c2oc(-c3ccc(F)cc3Cl)nc21
55.4%,23.5%,40.1%,15.5%,Cc1cccc(Cl)c1-c1nc2c(o1)C(=O)c1ccccc1C2=O
63.2%,25.8%,47.1%,24%,COc1ccc(Cl)c(-c2nc3c(o2)C(=O)c2ccccc2C3=O)c1
62.4%,42.2%,58.4%,16%,O=C1c2ccccc2C(=O)c2oc(-c3ccc(Cl)cc3Cl)nc21
69.4%,42.4%,56.9%,35.6%,COc1c(Cl)ccc(Cl)c1-c1nc2c(o1)C(=O)c1ccccc1C2=O
48.7%,26.3%,74.1%,20.4%,COc1ccc(Cl)c(-c2nc3c(o2)C(=O)c2ccccc2C3=O)c1F
55.3%,26.3%,59.1%,37.2%,O=C1c2ccccc2C(=O)c2oc(-c3cccc(F)c3)nc21
52.7%,25.2%,44.5%,32.2%,O=C1c2ccccc2C(=O)c2oc(-c3cc(Cl)ccc3Cl)nc21

# The next lines start with the compound.
SMILES,residual activity [1],residual activity [2],residual activity [3],residual activity [4]
COc1ccc(-c2nc3c(o2)C(=O)c2ccccc2C3=O)c(C(F)(F)F)c1,84.9%,41.7%,80.5%,18.6%
COc1cc(OC)cc(-c2nc3c(o2)C(=O)c2ccccc2C3=O)c1,83.6%,48.1%,72.2%,52.2%
CN1CC[C@H](Oc2cccc(-c3nc4c(o3)C(=O)c3ccccc3C4=O)c2)C1,75.6%,38.7%,60.2%,29.8%
COc1cc(F)cc(-c2nc3c(o2)C(=O)c2ccccc2C3=O)c1,62.8%,25.1%,37.2%,17.6%
COc1cc(-c2nc3c(o2)C(=O)c2ccccc2C3=O)ccc1C,70.8%,59.9%,57.9%,56.7%
O=C1c2ccccc2C(=O)c2oc(-c3ccc([N+](=O)[O-])cc3)nc21,36.1%,16.3%,20.2%,9.3%
O=C1c2ccccc2C(=O)c2oc(-c3cccc([N+](=O)[O-])c3)nc21,47.8%,18.9%,41.9%,29.4%
CN1CCN(CCOc2cc(-c3nc4c(o3)C(=O)c3ccccc3C4=O)ccc2Cl)CC1,75.9%,38.2%,82%,50.9%
O=C1c2ccccc2C(=O)c2oc(-c3c(F)c(F)cc(F)c3F)nc21,39.4%,14.1%,38.3%,24.1%
CN(C)CCOc1cccc(-c2nc3c(o2)C(=O)c2ccccc2C3=O)c1,66.7%,28.7%,60.4%,31.7%
COc1ccccc1-c1nc2c(o1)C(=O)c1ccccc1C2=O,59.2%,28.3%,43.9%,21.4%
O=C1c2ccccc2C(=O)c2oc(-c3ccc(C(F)(F)F)cc3)nc21,60.3%,29%,37.8%,18.2%
O=C1c2ccccc2C(=O)c2oc(-c3cccc(OCCN4CCOCC4)c3)nc21,82.1%,47.2%,80%,44.3%
CN1CCN(CCOc2cc(Cl)cc(-c3nc4c(o3)C(=O)c3ccccc3C4=O)c2)CC1,77.3%,36.3%,58.8%,27.9%
CN1CC[C@@H](Oc2cccc(-c3nc4c(o3)C(=O)c3ccccc3C4=O)c2F)C1,76.7%,41.3%,71.6%,38.6%
Cc1cccc(-c2nc3c(o2)C(=O)c2ccccc2C3=O)c1,63.1%,49.2%,63.6%,40.9%
CN1CC[C@@H](Oc2ccc(-c3nc4c(o3)C(=O)c3ccccc3C4=O)c(Cl)c2)C1,70.9%,35.1%,58.9%,34.7%
COc1cc(O[C@@H]2CCN(C)C2)cc(-c2nc3c(o2)C(=O)c2ccccc2C3=O)c1,77.1%,44.2%,71.2%,46.2%
CN1CC[C@@H](Oc2ccc(-c3nc4c(o3)C(=O)c3ccccc3C4=O)c(C(F)(F)F)c2)C1,74.7%,42.4%,63.2%,42.5%
COc1ccc2c(c1)C(=O)c1nc(-c3cccc(OCCN(C)C)c3)[nH]c1C2=O,78.4%,77.2%,95.3%,99.6%
O=C1c2ccccc2C(=O)c2oc(-c3ccc(F)cc3)nc21,55.8%,24.6%,53.5%,23.3%
COc1cccc(-c2nc3c(o2)C(=O)c2ccccc2C3=O)c1,61.7%,30.9%,52.7%,32.9%
CN(C)CCOc1cccc(-c2nc3c([nH]2)C(=O)c2ccccc2C3=O)c1,86.5%,80.4%,88.7%,86.4%
O=C1c2ccccc2C(=O)c2oc(-c3ccccc3[N+](=O)[O-])nc21,47.2%,19%,51.1%,21.6%
